Patent US20250163104A1, “MACROCYCLIC IMMUNOMODULATORS” (priority 2021, published 2025)
Where a SMILES comes first, the peptide text is derived from it. Bridges are numbered along the chain shown (N, C = ends). [ ]: non-standard residue; d: D form. The star is where a group is joined. ξ: configuration not given here. Phe(4-CONH2) = NC(=O)c1ccc(C[C@H](N)C(=O)O)cc1; Phe(4-COOH) = N[C@@H](Cc1ccc(C(=O)O)cc1)C(=O)O; Bip = N[C@@H](Cc1ccc(-c2ccccc2)cc1)C(=O)O; Phe(3-Me) = Cc1cccc(C[C@H](N)C(=O)O)c1; Val(3-OH) = CC(C)(O)[C@H](N)C(=O)O; 4Pal = N[C@@H](Cc1ccncc1)C(=O)O; Cha = N[C@@H](CC1CCCCC1)C(=O)O; Cit = NC(=O)NCCC[C@H](N)C(=O)O; Thr(3ξ) = CC(O)[C@H](N)C(=O)O; Carboxymethyl = O=C(O)C*; Orn = NCCC[C@H](N)C(=O)O; Dab = NCC[C@H](N)C(=O)O

target: T1, human PD-1 / PD-L1-Ig binding on Jurkat cell line over-expressing human PD-1 (Jurkat-PD-1) (Homo sapiens, UniProt Q15116); assay: Jurkat-PD-1 Cell Binding High-Content Screening Assay (CBA); type: cell-based; conditions: Jurkat-PD-1 cells, PE-labeled PD-L1-Ig 20 nM final; read-out: Jurkat HPD1_PDL1 IC50
T1 construct: expressed in transfected cells; host or cells: Jurkat
T1 sequence (Q15116 25-288): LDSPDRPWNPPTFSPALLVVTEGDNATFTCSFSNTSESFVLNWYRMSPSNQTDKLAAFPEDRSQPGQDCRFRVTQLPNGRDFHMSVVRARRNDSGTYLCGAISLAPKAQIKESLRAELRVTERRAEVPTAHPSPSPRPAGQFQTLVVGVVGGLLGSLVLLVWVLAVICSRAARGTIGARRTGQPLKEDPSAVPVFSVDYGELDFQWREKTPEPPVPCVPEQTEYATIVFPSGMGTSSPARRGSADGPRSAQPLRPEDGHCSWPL
Method in brief: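 Jurkat cells over-expressing human PD-1, in DMEM/10% FCS, pre-incubated with compound 2 h at 37° C. PE-labeled human PD-L1-Ig (20 nM final) added for 1 h; cells fixed in paraformaldehyde with Hoechst 33342 nuclear stain, washed, and bound fluorescence quantified by high-content imaging.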

| SMILES | IC50 [nM] |
| --- | --- |
| Cc1cccc(C[C@@H]2NC(=O)[C@H](CC(=O)O)NC(=O)[C@H](Cc3ccc(C(N)=O)cc3)NC(=O)[C@H](Cc3ccncc3)NC(=O)CSC[C@@H](C(=O)N[C@@H](CCN)C(N)=O)NC(=O)[C@H](CO)NC(=O)[C@H](C(C)(C)O)NC(=O)[C@H](CC3CCCCC3)NC(=O)[C@H](CCN)NC(=O)[C@@H](CC(C)C)NC(=O)[C@H](CCCN)NC(=O)[C@H](Cc3ccc(OCC(=O)O)cc3)NC(=O)[C@H](Cc3ccc(-c4ccccc4)cc3)NC(=O)[C@H](Cc3ccc(C(=O)O)cc3)NC2=O)c1 [Compound 2627] ({CH2CO}-[4Pal][Phe(4-CONH2)]D[Phe(3-Me)][Phe(4-COOH)][Bip]Y(Carboxymethyl)[Orn][dL][Dab][Cha][Val(3-OH)]SC[Dab]-NH2; thioether N-14) | 5 |
| Cc1cccc(C[C@@H]2NC(=O)[C@H](CC(=O)O)NC(=O)[C@H](Cc3ccc(OCC(=O)O)cc3)NC(=O)[C@H](Cc3ccncc3)NC(=O)CSC[C@@H](C(=O)N[C@H](CC(N)=O)C(N)=O)NC(=O)[C@H](CO)NC(=O)[C@H](C(C)(C)O)NC(=O)[C@H](CC3CCCCC3)NC(=O)[C@H](CCN)NC(=O)[C@@H](CC(C)C)NC(=O)[C@H](CCCN)NC(=O)[C@H](Cc3ccc(OCC(=O)O)cc3)NC(=O)[C@H](Cc3ccc(-c4ccccc4)cc3)NC(=O)[C@H](Cc3ccc(C(=O)O)cc3)NC2=O)c1 [Compound 2628] ({CH2CO}-[4Pal]Y(Carboxymethyl)D[Phe(3-Me)][Phe(4-COOH)][Bip]Y(Carboxymethyl)[Orn][dL][Dab][Cha][Val(3-OH)]SC[dN]-NH2; thioether N-14) | 20.6 |
| CC(C)C[C@H]1NC(=O)[C@H](CCCN)NC(=O)[C@H](C(C)C)NC(=O)[C@H](Cc2ccc(-c3ccccc3)cc2)NC(=O)[C@H](C(C)C)NC(=O)[C@H](Cc2c[nH]c3ccccc23)NC(=O)[C@H](CC(=O)O)NC(=O)[C@H](Cc2ccc(OCC(=O)O)cc2)NC(=O)[C@H](Cc2ccncc2)NC(=O)CSC[C@@H](C(=O)N[C@@H](CCN)C(N)=O)NC(=O)[C@H](C(C)O)NC(=O)[C@H](C(C)(C)O)NC(=O)[C@H](CC2CCCCC2)NC(=O)[C@H](CCN)NC1=O (stereo partly drawn) [Compound 2629] ({CH2CO}-[4Pal]Y(Carboxymethyl)DWV[Bip]V[Orn][dL][Dab][Cha][Val(3-OH)][Thr(3ξ)]C[Dab]-NH2; thioether N-14) | 10.6 |
| Cc1cccc(C[C@@H]2NC(=O)[C@H](CC(=O)O)NC(=O)[C@H](Cc3ccc(OCC(=O)O)cc3)NC(=O)[C@H](Cc3ccncc3)NC(=O)CSC[C@@H](C(=O)N[C@@H](CCN)C(N)=O)NC(=O)[C@H](C(C)O)NC(=O)[C@H](C(C)(C)O)NC(=O)[C@H](CC3CCCCC3)NC(=O)[C@H](CCN)NC(=O)[C@@H](CC(C)C)NC(=O)[C@H](CCCN)NC(=O)[C@H](CCCNC(N)=O)NC(=O)[C@H](Cc3ccc(-c4ccccc4)cc3)NC(=O)[C@H](C(C)C)NC2=O)c1 (stereo partly drawn) [Compound 2630] ({CH2CO}-[4Pal]Y(Carboxymethyl)D[Phe(3-Me)]V[Bip][Cit][Orn][dL][Dab][Cha][Val(3-OH)][Thr(3ξ)]C[Dab]-NH2; thioether N-14) | 12.3 |
| CC(C)C[C@H]1NC(=O)[C@H](CCCN)NC(=O)[C@H](C(C)C)NC(=O)[C@H](Cc2ccc(-c3ccccc3)cc2)NC(=O)[C@H](C(C)C)NC(=O)[C@H](Cc2c[nH]c3ccccc23)NC(=O)[C@H](CC(=O)O)NC(=O)[C@H](Cc2ccc(OCC(=O)O)cc2)NC(=O)[C@H](C(C)O)NC(=O)CSC[C@@H](C(=O)N[C@@H](CCN)C(N)=O)NC(=O)[C@H](C(C)O)NC(=O)[C@H](C(C)(C)O)NC(=O)[C@H](CC2CCCCC2)NC(=O)[C@H](CCN)NC1=O (stereo partly drawn) [Compound 2631] ({CH2CO}-[Thr(3ξ)]Y(Carboxymethyl)DWV[Bip]V[Orn][dL][Dab][Cha][Val(3-OH)][Thr(3ξ)]C[Dab]-NH2; thioether N-14) | 8.5 |
| Cc1cccc(C[C@@H]2NC(=O)[C@H](CC(=O)O)NC(=O)[C@H](Cc3ccc(OCC(=O)O)cc3)NC(=O)[C@H](C(C)O)NC(=O)CSC[C@@H](C(=O)N[C@@H](CCN)C(N)=O)NC(=O)[C@H](C(C)O)NC(=O)[C@H](C(C)(C)O)NC(=O)[C@H](CC3CCCCC3)NC(=O)[C@H](CCN)NC(=O)[C@@H](CC(C)C)NC(=O)[C@H](CCCN)NC(=O)[C@H](CCCNC(N)=O)NC(=O)[C@H](Cc3ccc(-c4ccccc4)cc3)NC(=O)[C@H](C(C)C)NC2=O)c1 (stereo partly drawn) [Compound 2632] ({CH2CO}-[Thr(3ξ)]Y(Carboxymethyl)D[Phe(3-Me)]V[Bip][Cit][Orn][dL][Dab][Cha][Val(3-OH)][Thr(3ξ)]C[Dab]-NH2; thioether N-14) | 8.8 |
| Cc1cccc(C[C@@H]2NC(=O)[C@H](CC(=O)O)NC(=O)[C@H](Cc3ccc(OCC(=O)O)cc3)NC(=O)[C@H](C(C)O)NC(=O)CSC[C@@H](C(=O)N[C@@H](CCN)C(N)=O)NC(=O)[C@H](CO)NC(=O)[C@H](C(C)(C)O)NC(=O)[C@H](CC3CCCCC3)NC(=O)[C@H](CCN)NC(=O)[C@@H](CC(C)C)NC(=O)[C@H](CCCN)NC(=O)[C@H](Cc3ccc(O)cc3)NC(=O)[C@H](Cc3ccc(-c4ccccc4)cc3)NC(=O)[C@H](Cc3ccc(C(N)=O)cc3)NC2=O)c1 (stereo partly drawn) [Compound 2633] ({CH2CO}-[Thr(3ξ)]Y(Carboxymethyl)D[Phe(3-Me)][Phe(4-CONH2)][Bip]Y[Orn][dL][Dab][Cha][Val(3-OH)]SC[Dab]-NH2; thioether N-14) | 4 |
| Cc1cccc(C[C@@H]2NC(=O)[C@H](CC(=O)O)NC(=O)[C@H](Cc3ccc(OCC(=O)O)cc3)NC(=O)[C@H](C(C)O)NC(=O)CSC[C@@H](C(=O)N[C@@H](CCN)C(N)=O)NC(=O)[C@H](CO)NC(=O)[C@H](C(C)(C)O)NC(=O)[C@H](CC3CCCCC3)NC(=O)[C@H](CCN)NC(=O)[C@@H](CC(C)C)NC(=O)[C@H](CCCN)NC(=O)[C@H](Cc3ccc(OCC(=O)O)cc3)NC(=O)[C@H](Cc3ccc(-c4ccccc4)cc3)NC(=O)[C@H](Cc3ccc(C(=O)O)cc3)NC2=O)c1 (stereo partly drawn) [Compound 2634] ({CH2CO}-[Thr(3ξ)]Y(Carboxymethyl)D[Phe(3-Me)][Phe(4-COOH)][Bip]Y(Carboxymethyl)[Orn][dL][Dab][Cha][Val(3-OH)]SC[Dab]-NH2; thioether N-14) | 4.7 |
| Cc1cccc(C[C@@H]2NC(=O)[C@H](CC(=O)O)NC(=O)[C@H](Cc3ccc(C(=O)O)cc3)NC(=O)[C@H](C(C)O)NC(=O)CSC[C@@H](C(=O)N[C@@H](CCN)C(N)=O)NC(=O)[C@H](CO)NC(=O)[C@H](C(C)(C)O)NC(=O)[C@H](CC3CCCCC3)NC(=O)[C@H](CCN)NC(=O)[C@@H](CC(C)C)NC(=O)[C@H](CCCN)NC(=O)[C@H](Cc3ccc(OCC(=O)O)cc3)NC(=O)[C@H](Cc3ccc(-c4ccccc4)cc3)NC(=O)[C@H](Cc3ccc(C(=O)O)cc3)NC2=O)c1 (stereo partly drawn) [Compound 2635] ({CH2CO}-[Thr(3ξ)][Phe(4-COOH)]D[Phe(3-Me)][Phe(4-COOH)][Bip]Y(Carboxymethyl)[Orn][dL][Dab][Cha][Val(3-OH)]SC[Dab]-NH2; thioether N-14) | 4.5 |
| Cc1cccc(C[C@@H]2NC(=O)[C@H](CC(=O)O)NC(=O)[C@H](Cc3ccc(C(N)=O)cc3)NC(=O)[C@H](Cc3ccncc3)NC(=O)CSC[C@@H](C(=O)N[C@@H](CCN)C(N)=O)NC(=O)[C@H](CO)NC(=O)[C@H](C(C)(C)O)NC(=O)[C@H](CC3CCCCC3)NC(=O)[C@H](CCN)NC(=O)[C@@H](CC(C)C)NC(=O)[C@H](CCCN)NC(=O)[C@H](Cc3ccc(OCC(=O)O)cc3)NC(=O)[C@H](Cc3ccc(-c4ccccc4)cc3)NC(=O)[C@H](Cc3ccc(OCC(=O)O)cc3)NC2=O)c1 [Compound 2636] ({CH2CO}-[4Pal][Phe(4-CONH2)]D[Phe(3-Me)]Y(Carboxymethyl)[Bip]Y(Carboxymethyl)[Orn][dL][Dab][Cha][Val(3-OH)]SC[Dab]-NH2; thioether N-14) | 4.9 |
| CC(C)C[C@H]1NC(=O)[C@H](CCCN)NC(=O)[C@H](CCCNC(N)=O)NC(=O)[C@H](Cc2ccc(-c3ccccc3)cc2)NC(=O)[C@H](C(C)C)NC(=O)[C@H](Cc2c[nH]c3ccccc23)NC(=O)[C@H](CC(=O)O)NC(=O)[C@H](Cc2ccc(OCC(=O)O)cc2)NC(=O)[C@H](CCN)NC(=O)CSC[C@@H](C(=O)N[C@@H](CCN)C(N)=O)NC(=O)[C@H](C(C)O)NC(=O)[C@H](C(C)C)NC(=O)[C@H](CC2CCCCC2)NC(=O)[C@H](CCN)NC1=O (stereo partly drawn) [Compound 2638] ({CH2CO}-[Dab]Y(Carboxymethyl)DWV[Bip][Cit][Orn][dL][Dab][Cha]V[Thr(3ξ)]C[Dab]-NH2; thioether N-14) | 16.1 |
| Cc1cccc(C[C@@H]2NC(=O)[C@H](CC(=O)O)NC(=O)[C@H](Cc3ccc(OCC(=O)O)cc3)NC(=O)[C@H](CCN)NC(=O)CSC[C@@H](C(=O)N[C@@H](CCCN)C(N)=O)NC(=O)[C@H](C(C)O)NC(=O)[C@H](C(C)C)NC(=O)[C@H](CC3CCCCC3)NC(=O)[C@H](CCN)NC(=O)[C@@H](CC(C)C)NC(=O)[C@H](CCCN)NC(=O)[C@H](CCCNC(N)=O)NC(=O)[C@H](Cc3ccc(-c4ccccc4)cc3)NC(=O)[C@H](C(C)C)NC2=O)c1 (stereo partly drawn) [Compound 2639] ({CH2CO}-[Dab]Y(Carboxymethyl)D[Phe(3-Me)]V[Bip][Cit][Orn][dL][Dab][Cha]V[Thr(3ξ)]C[Orn]-NH2; thioether N-14) | 13.6 |
| Cc1cccc(C[C@@H]2NC(=O)[C@H](CC(=O)O)NC(=O)[C@H](Cc3ccc(OCC(=O)O)cc3)NC(=O)[C@H](C(C)O)NC(=O)CSC[C@@H](C(=O)N[C@H](CC(N)=O)C(N)=O)NC(=O)[C@H](C(C)O)NC(=O)[C@H](C(C)C)NC(=O)[C@H](CC3CCCCC3)NC(=O)[C@H](CCN)NC(=O)[C@@H](CC(C)C)NC(=O)[C@H](CCCN)NC(=O)[C@H](Cc3ccc(OCC(=O)O)cc3)NC(=O)[C@H](Cc3ccc(-c4ccccc4)cc3)NC(=O)[C@H](Cc3ccc(OCC(=O)O)cc3)NC2=O)c1 (stereo partly drawn) [Compound 2640] ({CH2CO}-[Thr(3ξ)]Y(Carboxymethyl)D[Phe(3-Me)]Y(Carboxymethyl)[Bip]Y(Carboxymethyl)[Orn][dL][Dab][Cha]V[Thr(3ξ)]C[dN]-NH2; thioether N-14) | 35 |
